Assay results published in patent publication US10377725B2, “Phenyl amino pyrimidine compound or polymorph of salt thereof” (Suzhou Zelgen Biopharmaceuticals Co., Ltd., priority 2015, dated 2019).

Columns and labels:
[1] = accelerated stability test of polymorphs; assay type: physicochemical; conditions: accelerated test 40±2° C., 75%±5% RH, 6 months; for purity after accelerated test: compared to freshly prepared (0 Month)
[2] = hygroscopicity test of polymorphs (Chinese Pharmacopoeia 2010 edition, Appendix XIX J); assay type: physicochemical; conditions: 25° C.±1° C., saturated ammonium sulfate solution, 24 h
Description: The test was performed according to the guiding principles of drug's hygroscopic test (Chinese Pharmacopoeia 2010 edition, Appendix XIX J).
1. Take 4 dry glass weighing bottles with lids (60 mm of the outer diameter and 30 mm of the height). On the day before the test, the bottles were placed in a glass dryer (“constant temperature and humidity dryer”) where a saturated ammonium sulfate solution was placed, and the glass dryer was placed in the bottom of a constant temperature and humidity box at 25° C.±1° C.
2. After each empty weighing bottle together with its lid were placed in the “constant temperature and humidity dryer” for 24 hours, stabilize precisely the weight of each unit by a set (one weighing bottle+its lid), recorded as m1.
3. A polymorph II sample was taken and tiled in a glass weighing bottle which had been weighed (the thickness of a sample was about 1 mm), and the bottle was covered, the weight of each weighing bottle (one weighing bottle+its lid+the sample) was precisely weighed, recorded as m2.
3. Each sample was placed in the “constant temperature and humidity dryer” for 24 h, and then the weight of each weighing bottle (one weighing bottle+its lid+the sample) was precisely weighed, recorded as m3.
4. The percentage of hygroscopicity weight increase of each sample was calculated (the formula was shown as follows), and it is defined as no or almost no hygroscopicity when the percentage of hygroscopicity weight increase is less than 0.2%. It is defined as slightly hygroscopicity when the percentage of hygroscopicity weight increase is equal or greater than 0.2%, but less than 2.0%. the percentage of weight increase=[(m3−m2)/(m2−m1)]×100%

Row | Structure (SMILES) | degradated impurity [1] | stability of crystal form [1] | purity after accelerated test [1] | hygroscopicity [2] | percentage of weight increase [2] [%]
1 | Cl.Cl.O.[2H]C1([2H])CN(c2ccc(Nc3nccc(-c4ccc(C(=O)NCC#N)cc4)n3)cc2)CC([2H])([2H])O1 [polymorph II, N-(cyanomethyl)-4-(2-((4-(2′,2′,6′,6′-d4-morpholino)phenyl)amino)pyrimidin-4-yl)benzamide dihydrochloride monohydrate] | no obvious degradated impurity was observed | very stable | above 99% | slightly hygroscopicity (slightly hygroscopicity when the percentage of hygroscopicity weight increase is equal or greater than 0.2%, but less than 2.0%) | 0.24
2 | [2H]C1([2H])COCC([2H])([2H])N1c1ccc(Nc2nccc(-c3ccc(C(=O)NCC#N)cc3)n2)cc1 [polymorph V, N-(cyanomethyl)-4-(2-((4-(2′,2′,6′,6′-d4-morpholino)phenyl)amino)pyrimidin-4-yl)benzamide] | no obvious degradated impurity was observed | very stable | above 99% | – | –
3 | Cl.[2H]C1([2H])CN(c2ccc(Nc3nccc(-c4ccc(C(=O)NCC#N)cc4)n3)cc2)CC([2H])([2H])O1 [polymorph III, N-(cyanomethyl)-4-(2-((4-(2′,2′,6′,6′-d4-morpholino)phenyl)amino)pyrimidin-4-yl)benzamide monohydrochloride] | no obvious degradated impurity was observed | very stable | above 99% | – | –
4 | Cl.Cl.[2H]C1([2H])CN(c2ccc(Nc3nccc(-c4ccc(C(=O)NCC#N)cc4)n3)cc2)CC([2H])([2H])O1 [polymorph I, N-(cyanomethyl)-4-(2-((4-(2′,2′,6′,6′-d4-morpholino)phenyl)amino)pyrimidin-4-yl)benzamide dihydrochloride] | no obvious degradated impurity was observed | very stable | above 99% | slightly hygroscopicity (slightly hygroscopicity when the percentage of hygroscopicity weight increase is equal or greater than 0.2%, but less than 2.0%) | –
